Read-outs that look alike come from different tables or passages of the source.
What was measured:
[1] = target: T1, E. coli TrxR (thioredoxin reductase) (Escherichia coli, UniProt P0A9P4); set-up: gene trxB
[2] = target: T1, E. coli TrxR (thioredoxin reductase); assay: Trx-coupled DTNB reduction assay, purified recombinant enzyme; activity recovered after desalting; format: biochemical; set-up: gene trxB; GenBank PSY25180.1, residues 1–321, His6-SUMO tag removed

T1 sequence (P0A9P4 whole entry, the tested form may be a part): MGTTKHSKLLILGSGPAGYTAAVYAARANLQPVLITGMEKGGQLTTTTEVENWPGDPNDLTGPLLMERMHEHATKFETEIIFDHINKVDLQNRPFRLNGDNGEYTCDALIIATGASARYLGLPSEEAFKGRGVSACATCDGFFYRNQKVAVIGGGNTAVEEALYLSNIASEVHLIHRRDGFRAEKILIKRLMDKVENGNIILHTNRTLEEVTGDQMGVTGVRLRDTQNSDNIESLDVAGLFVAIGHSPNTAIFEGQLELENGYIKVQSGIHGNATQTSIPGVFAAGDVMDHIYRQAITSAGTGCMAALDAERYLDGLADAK
T1 sequence (P0AA25 whole entry, further chain, the tested form may be a part): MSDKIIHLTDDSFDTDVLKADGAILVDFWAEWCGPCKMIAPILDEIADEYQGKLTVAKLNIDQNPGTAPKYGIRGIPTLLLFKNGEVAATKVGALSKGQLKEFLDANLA

| Compound | IC50 [1] | IC50 [2] |
| --- | --- | --- |
| CC[P](CC)(CC)=[Au][S][C@@H]1O[C@H](COC(C)=O)[C@@H](OC(C)=O)[C@H](OC(C)=O)[C@H]1OC(C)=O [auranofin] | 1110 nM | – |
| [Au(dppta)(mrdtc)][PF6] [compound 2] | – | 1920 nM |
| [Au(dppta)Cl2] [compound 1] | – | 1330 nM |
